Measurements taken from PubChem BioAssay (NCI).
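Exposure lasted 48 hours, with cells grown in 96-well plates and compounds tested at five concentrations. TGI: total growth inhibition.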

Assays:
Test in all cases: NCI anticancer screen, dose series, 48 h
HL-60(TB) leukemia = system: HL-60(TB) leukemia
RXF 393 renal = system: RXF 393 renal
OVCAR-8 ovarian = system: OVCAR-8 ovarian
MOLT-4 leukemia = system: MOLT-4 leukemia
SF-268 CNS = system: SF-268 CNS
HCT-116 colon = system: HCT-116 colon
DU-145 prostate = system: DU-145 prostate
NCI-H460 lung = system: NCI-H460 lung
SR leukemia = system: SR leukemia
SNB-75 CNS = system: SNB-75 CNS
NCI/ADR-RES ovarian = system: NCI/ADR-RES ovarian
M14 melanoma = system: M14 melanoma
K-562 leukemia = system: K-562 leukemia
HCT-15 colon = system: HCT-15 colon
COLO 205 colon = system: COLO 205 colon
PC-3 prostate = system: PC-3 prostate
SK-OV-3 ovarian = system: SK-OV-3 ovarian
NCI-H226 lung = system: NCI-H226 lung
SF-539 CNS = system: SF-539 CNS
UO-31 renal = system: UO-31 renal
MCF7 breast = system: MCF7 breast
KM12 colon = system: KM12 colon
UACC-62 melanoma = system: UACC-62 melanoma
BT-549 breast = system: BT-549 breast
HT29 colon = system: HT29 colon
OVCAR-5 ovarian = system: OVCAR-5 ovarian
SW-620 colon = system: SW-620 colon
ACHN renal = system: ACHN renal
LOX IMVI melanoma = system: LOX IMVI melanoma
SK-MEL-28 melanoma = system: SK-MEL-28 melanoma
IGROV1 ovarian = system: IGROV1 ovarian
786-0 renal = system: 786-0 renal
SK-MEL-5 melanoma = system: SK-MEL-5 melanoma
MDA-MB-231 breast = system: MDA-MB-231 breast
RPMI-8226 leukemia = system: RPMI-8226 leukemia
NCI-H23 lung = system: NCI-H23 lung
SK-MEL-2 melanoma = system: SK-MEL-2 melanoma
HCC-2998 colon = system: HCC-2998 colon
CAKI-1 renal = system: CAKI-1 renal
OVCAR-4 ovarian = system: OVCAR-4 ovarian
A549 NSCLC = system: A549 NSCLC
SN12C renal = system: SN12C renal
TK-10 renal = system: TK-10 renal
CCRF-CEM leukemia = system: CCRF-CEM leukemia
MALME-3M melanoma = system: MALME-3M melanoma
HS 578T breast = system: HS 578T breast
SF-295 CNS = system: SF-295 CNS
UACC-257 melanoma = system: UACC-257 melanoma
T-47D breast = system: T-47D breast
HOP-92 NSCLC = system: HOP-92 NSCLC
EKVX NSCLC = system: EKVX NSCLC
NCI-H522 lung = system: NCI-H522 lung
MDA-N = system: MDA-N
U251 CNS = system: U251 CNS
MDA-MB-435 = system: MDA-MB-435
SNB-19 CNS = system: SNB-19 CNS
OVCAR-3 ovarian = system: OVCAR-3 ovarian
HOP-62 NSCLC = system: HOP-62 NSCLC
A498 renal = system: A498 renal

Measured: TGI

Cc1cc(NS(=O)(=O)c2ccc(Nc3c4ccccc4nc4ccc(C(=O)Nc5ccc(S(=O)(=O)N=C(N)N)cc5)cc34)cc2)no1
> 100 µM: HL-60(TB) leukemia | RXF 393 renal | OVCAR-8 ovarian | MOLT-4 leukemia | SF-268 CNS | HCT-116 colon | DU-145 prostate | NCI-H460 lung | SR leukemia | SNB-75 CNS | NCI/ADR-RES ovarian | M14 melanoma | K-562 leukemia | HCT-15 colon | COLO 205 colon | PC-3 prostate | SK-OV-3 ovarian | NCI-H226 lung | SF-539 CNS | UO-31 renal | MCF7 breast | KM12 colon | UACC-62 melanoma | BT-549 breast | HT29 colon | OVCAR-5 ovarian | SW-620 colon | ACHN renal | LOX IMVI melanoma | SK-MEL-28 melanoma | IGROV1 ovarian | 786-0 renal | SK-MEL-5 melanoma | MDA-MB-231 breast | RPMI-8226 leukemia | NCI-H23 lung | SK-MEL-2 melanoma | HCC-2998 colon | CAKI-1 renal | OVCAR-4 ovarian | A549 NSCLC | SN12C renal | TK-10 renal | CCRF-CEM leukemia | MALME-3M melanoma | HS 578T breast | SF-295 CNS | UACC-257 melanoma | T-47D breast | HOP-92 NSCLC | EKVX NSCLC | NCI-H522 lung | MDA-N | U251 CNS | MDA-MB-435 | SNB-19 CNS | OVCAR-3 ovarian | HOP-62 NSCLC

CN(C)Cc1cc(N=Nc2ccccc2Cl)cc(CN(C)C)c1O
38.7 µM: LOX IMVI melanoma
88.3 µM: RXF 393 renal
> 100 µM: OVCAR-8 ovarian | MOLT-4 leukemia | SF-268 CNS | HCT-116 colon | DU-145 prostate | NCI-H460 lung | SR leukemia | SNB-75 CNS | NCI/ADR-RES ovarian | K-562 leukemia | HCT-15 colon | COLO 205 colon | PC-3 prostate | NCI-H226 lung | A498 renal | SF-539 CNS | UO-31 renal | MCF7 breast | KM12 colon | BT-549 breast | HT29 colon | OVCAR-5 ovarian | SW-620 colon | ACHN renal | IGROV1 ovarian | 786-0 renal | MDA-MB-231 breast | RPMI-8226 leukemia | NCI-H23 lung | HCC-2998 colon | CAKI-1 renal | OVCAR-4 ovarian | A549 NSCLC | SN12C renal | TK-10 renal | HS 578T breast | SF-295 CNS | T-47D breast | HOP-92 NSCLC | EKVX NSCLC | U251 CNS | MDA-MB-435 | SNB-19 CNS | OVCAR-3 ovarian | HOP-62 NSCLC
76.7 µM: CCRF-CEM leukemia
79.3 µM: MDA-N
41.4 µM: UACC-257 melanoma
62.8 µM: HL-60(TB) leukemia
49.1 µM: M14 melanoma
28.8 µM: NCI-H522 lung
32 µM: SK-MEL-5 melanoma
64.1 µM: UACC-62 melanoma
33.6 µM: SK-MEL-28 melanoma
